# Data from patent US11026991B2, “Compositions and methods of use thereof to promote muscle growth and function” (Worlds Greatest Ingredients, LP, priority 2018, dated 2021).
# Like-named read-outs stand apart in the source and are kept apart here.
# Conditions: in vivo; for Plasma Isoleucine Concentrations After Ingestion / Plasma Leucine Concentrations After Ingestion / Plasma Lysine Concentrations After Ingestion / Plasma Methionine Concentrations After Ingestion / Plasma Phenylalanine Concentrations After Ingestion / Plasma Threonine Concentrations After Ingestion / Plasma Tryptophan Concentrations After Ingestion / Plasma Valine Concentrations After Ingestion / Total Plasma BCAA Concentrations After Ingestion / Total Plasma EAA Concentrations After Ingestion / Plasma Leucine Delta Change Relative to Baseline Values / Plasma Leucine Percent Change Relative to Baseline Values / relative increase in plasma leucine from Pre / elevation in plasma leucine relative to baseline, times greater than the other condition: male, human
# Experimental: The subject came into the laboratory fasted prior to the testing days. […] On Day 1, they were randomized to consume 1 of the 2 conditions. Following, consumption of the fluid mixture (8 oz. water), plasma amino acids were measured at 30, 60, 90, and 120 minutes. A 72-hour washout took place followed by the 2nd condition following the same procedures.
# The dosage used in this study was either 2 grams of di-leucine (condition Ce) or 2 grams of leucine (condition C4).
smiles,measurement,setting,value
"CC(C)C[C@H](N)C(=O)O [Condition C4, leucine]","increase in plasma lysine, times greater than the other condition",,19 ×
same,increases in total EAA concentration relative to baseline (range),,9.4% to 16.3%
same,plasma phenylalanine change relative to Pre values (range),,−16.0% to −3.5%
same,Plasma Isoleucine Concentrations After Ingestion,,45.75 nmol/L
same,Plasma Leucine Concentrations After Ingestion,,92.25 nmol/L
same,Plasma Lysine Concentrations After Ingestion,,121.19 nmol/L
same,Plasma Methionine Concentrations After Ingestion,,18.77 nmol/L
same,Plasma Phenylalanine Concentrations After Ingestion,,48.61 nmol/L
same,Plasma Threonine Concentrations After Ingestion,,87.38 nmol/L
same,Plasma Tryptophan Concentrations After Ingestion,,45.00 nmol/L
same,Plasma Valine Concentrations After Ingestion,,230.43 nmol/L
same,Total Plasma BCAA Concentrations After Ingestion,,368.43 nmol/L
same,Total Plasma EAA Concentrations After Ingestion,,689.38 nmol/L
same,Plasma Isoleucine Concentrations After Ingestion,30 min,34.44 nmol/L
same,Plasma Leucine Concentrations After Ingestion,30 min,198.33 nmol/L
same,Plasma Leucine Delta Change Relative to Baseline Values,30 min,106.09 nmol/L
same,Plasma Leucine Percent Change Relative to Baseline Values,30 min,115.0%
same,Plasma Lysine Concentrations After Ingestion,30 min,135.48 nmol/L
same,Plasma Methionine Concentrations After Ingestion,30 min,16.61 nmol/L
same,Plasma Phenylalanine Concentrations After Ingestion,30 min,42.44 nmol/L
same,Plasma Threonine Concentrations After Ingestion,30 min,76.42 nmol/L
same,Plasma Tryptophan Concentrations After Ingestion,30 min,40.12 nmol/L
same,Plasma Valine Concentrations After Ingestion,30 min,210.39 nmol/L
same,Total Plasma BCAA Concentrations After Ingestion,30 min,443.16 nmol/L
same,Total Plasma EAA Concentrations After Ingestion,30 min,754.23 nmol/L
same,relative increase in plasma leucine from Pre,30 min,106.09 nmol/mL
same,Plasma Isoleucine Concentrations After Ingestion,60 min,33.30 nmol/L
same,Plasma Leucine Concentrations After Ingestion,60 min,146.70 nmol/L
same,Plasma Leucine Delta Change Relative to Baseline Values,60 min,54.45 nmol/L
same,Plasma Leucine Percent Change Relative to Baseline Values,60 min,59.0%
same,Plasma Lysine Concentrations After Ingestion,60 min,128.45 nmol/L
same,Plasma Methionine Concentrations After Ingestion,60 min,15.94 nmol/L
same,Plasma Phenylalanine Concentrations After Ingestion,60 min,40.84 nmol/L
same,Plasma Threonine Concentrations After Ingestion,60 min,75.83 nmol/L
same,Plasma Tryptophan Concentrations After Ingestion,60 min,43.54 nmol/L
same,Plasma Valine Concentrations After Ingestion,60 min,200.61 nmol/L
same,Total Plasma BCAA Concentrations After Ingestion,60 min,380.61 nmol/L
same,Total Plasma EAA Concentrations After Ingestion,60 min,685.20 nmol/L
same,relative increase in plasma leucine from Pre,60 min,54.45 nmol/mL
same,Plasma Isoleucine Concentrations After Ingestion,90 min,40.37 nmol/L
same,Plasma Leucine Concentrations After Ingestion,90 min,181.67 nmol/L
same,Plasma Leucine Delta Change Relative to Baseline Values,90 min,89.42 nmol/L
same,Plasma Leucine Percent Change Relative to Baseline Values,90 min,96.9%
same,Plasma Lysine Concentrations After Ingestion,90 min,134.15 nmol/L
same,Plasma Methionine Concentrations After Ingestion,90 min,19.30 nmol/L
same,Plasma Phenylalanine Concentrations After Ingestion,90 min,46.94 nmol/L
same,Plasma Threonine Concentrations After Ingestion,90 min,91.05 nmol/L
same,Plasma Tryptophan Concentrations After Ingestion,90 min,46.58 nmol/L
same,Plasma Valine Concentrations After Ingestion,90 min,225.20 nmol/L
same,Total Plasma BCAA Concentrations After Ingestion,90 min,447.24 nmol/L
same,Total Plasma EAA Concentrations After Ingestion,90 min,785.26 nmol/L
same,"elevation in plasma leucine relative to baseline, times greater than the other condition",90 min,2.6 ×
same,Plasma Isoleucine Concentrations After Ingestion,120 min,36.47 nmol/L
same,Plasma Leucine Concentrations After Ingestion,120 min,158.84 nmol/L
same,Plasma Leucine Delta Change Relative to Baseline Values,120 min,66.59 nmol/L
same,Plasma Leucine Percent Change Relative to Baseline Values,120 min,72.2%
same,Plasma Lysine Concentrations After Ingestion,120 min,171.18 nmol/L
same,Plasma Methionine Concentrations After Ingestion,120 min,19.19 nmol/L
same,Plasma Phenylalanine Concentrations After Ingestion,120 min,45.40 nmol/L
same,Plasma Threonine Concentrations After Ingestion,120 min,90.94 nmol/L
same,Plasma Tryptophan Concentrations After Ingestion,120 min,44.81 nmol/L
same,Plasma Valine Concentrations After Ingestion,120 min,234.78 nmol/L
same,Total Plasma BCAA Concentrations After Ingestion,120 min,430.08 nmol/L
same,Total Plasma EAA Concentrations After Ingestion,120 min,801.61 nmol/L
same,"elevation in plasma leucine relative to baseline, times greater than the other condition",120 min,1.5 ×
